The text below walks through data of patent US20250134949A1, “PROMININ-1 PEPTIDE FOR TREATING LUNG INJURY” (Children's Medical Center Corporation, priority 2017, published 2025).

One data set deals with VEGFR-2. Nature of the data set: Lung cell VEGFR-2 phosphorylation after inhalation of nebulized peptide (FACS). The format is in vivo, mouse. As to conditions: live mice, nebulized (20 min), lung cells harvested 30 minutes after end of inhalation; compared to SP. An excerpt:
VEGF mediates cell survival and apoptosis pathways via binding to and activation of VEGFR-2 and signaling through the PI3K/AKT pathway (13). […] To evaluate the effect of PR1P on VEGF signaling in the lung, both FACS and Western blotting were used to measure the levels of phosphorylated VEGFR-2 and AKT in the human lung respiratory epithelial cell line BEAS-2B in response to treatment with PR1P, scrambled peptide (SP), or VEGF. […] To determine whether PR1P also effectively modulated VEGF signaling in the lungs of animals (i.e. whether PR1P was bioactive in-vivo) live mice were treated with nebulized VEGF, SP or PR1P (20 min) and performed FACS analysis on lung cells harvested from treated animals 30 minutes after the end of inhalation. […]
Lungs were harvested from treated animals, cut into small pieces using surgical scissors and suspended and gently stirred in 3 ml serum free BEBM containing Liberase (2 mg ml, Sigma-Aldrich, St. Louis, MO). […] Cells were subsequently washed with FACS media and analyzed by a flow cytometer (BD Biosciences, San Jose, CA, USA) running FlowJo 7.2.2, software (Tomy Digital Biology. Tokyo, Japan).

The conditions of data set [1]: in vivo; cited from earlier work.
For the next data set, the system named is VEGFR2. Nature of the data set: PR1P induced VEGFR2 phosphorylation in Beas-2B cells with or without SU5416 (FACS). Type of data set: cell-based, human. As to conditions: then PR1P (125 μM) 20 min. The method, then: (§1) It was previously shown in part that PR1P binds VEGF, increases VEGF binding to VEGF receptors, and induces downstream VEGF signaling including the phosphorylation of VEGF receptor 2 and AKT. To determine whether PR1P mediation of VEGF signaling requires VEGFR2 activation, lung epithelial cells (Beas-2B) were treated with the specific VEGFR2 inhibitor SU5416 ([…]) or with vehicle alone as control for 24 hours and then exposed PR1P (125 μM) or vehicle for 20 min. Cells were then harvested and levels of phosphorylated VEGFR2 and AKT were assessed using FACS. […] These findings strongly support the notion that PR1P upregulation of VEGF signaling requires VEGFR-2 activation.
(§2) Serum-starved monolayers of Beas-2B cells were incubated in the presence or absence of SU5416 (20 μM) for 24 h on 10 cm tissue culture plates. After single washing with PBS, the cells were treated with 3 ml of starvation media in the presence of PR1P (125 […]) or vehicle as control for 20 minutes at 37° C. At the conclusion of the experiments, cells were prepared for FACS analysis using standard procedures. Cells were analyzed for levels of phosphorylated VEGFR2 and AKT using anti pAKT and pVEGFR2 antibodies (Cell signaling, Danvers MA).

Another data set relates to AKT. As to the kind of experiment: PR1P induced AKT phosphorylation in Beas-2B cells with or without SU5416 (FACS). The format is cell-based, human. The conditions noted are these: then PR1P (125 μM) 20 min. The method, then: as §1, §2
A short description of data set [2]: Observation of ill effects during inhalation studies. Type of data set: in vivo, mouse. The conditions noted are these: 24-hour experimental period, delivered directly into the lungs; data not shown. An excerpt: These and similar findings led many to believe that over-expression of VEGF in the lung could be curative in emphysema (54), however, enthusiasm for this type of therapy is tempered by clinical trials using systemic VEGF therapy (41) that were complicated by systemic and pulmonary toxicities including increased vascular permeability leading to hypotension (55) and tissue and lung edema (56, 57). […] The results outlined herein raise the possibility that a strategy to use PR1P to upregulate endogenous VEGF signaling in vivo may avoid toxicity seen with alternative and more conventional forms of VEGF therapy. […] PR1P could be used to avoid complications associated with constitutive VEGF over-expression or systemic VEGF treatment by stabilizing and potentiating the signaling of local endogenous VEGF. It will be important to clearly delineate the fate and pharmacokinetics of PR1P in evaluating its toxicity potential. Because of its small size, PR1P could also be more easily packaged as cargo inside nanometer or micron sized storage vehicles for tissue or cell targeted therapy.
8 week old female C3H/HENCrl (Charles River Laboratories, Cambridge, MA) mice (22±2 g) were placed in a whole-animal nebulization chamber (14×5×8 cm) and allowed to spontaneously inhale (20 min) nebulized LPS (Salmonela enterica, Sigma-Aldrich, St. Louis, MO), PR1P, scrambled peptide (SP), or VEGF. […]

No end group written: not given here.

For VEGF, the “lung cell VEGFR-2 phosphorylation” value with VEGFR-2 is reported as “increased pVEGFR2”.

As for “elastase: porcine pancreatic elastase (PPE) used intra-tracheally to induce emphysema phenotype”, in data set [1], the “half-life of exogenous elastase administered into the animal lungs” value is “approximately 50 minutes”.

As to `Cc1cc(C)c(/C=C2\C(=O)Nc3ccccc32)[nH]1` [SU5416], in the data set with VEGFR2, the “effect of PR1P on the phosphorylation level of VEGFR-2 in presence of inhibitor” value is given as “significantly reduced”. Moreover, the “effect of PR1P on the phosphorylation level of AKT in presence of inhibitor” value in the data set on AKT is given as “significantly reduced”.

As for DRVQRQTTTVVA [PR1P, DRVQRQTTTVVA], the “ill effects from therapy” value in data set [2] is recorded as “ill effects were not observed”.
